# Results reported in ChEMBL document CHEMBL5096184, “Structure activity relationship in β-carboline derived anti-malarial agents” (Eur J Med Chem, 2021).
# Key:
# Plasmodium falciparum [1] = assay: Antiplasmodial activity against chloroquine sensitive Plasmodium falciparum FCA 20/Ghana; format: functional, organism-based
# Plasmodium falciparum [2] = assay: Antiplasmodial activity against chloroquine sensitive Plasmodium falciparum FCB1-R/Colombia; format: functional, organism-based
# Plasmodium falciparum [3] = assay: Antiplasmodial activity against chloroquine sensitive Plasmodium falciparum W2/Indochina; format: functional, organism-based
# Plasmodium falciparum [4] = assay: Antimalarial activity against Plasmodium falciparum K1; format: functional, organism-based
# Plasmodium falciparum [5] = assay: Antimalarial activity against multi drug resistant Plasmodium falciparum W2; format: functional, organism-based
# [6] = Cytotoxicity against human MRC5 cells; format: toxicity, cell-based
# Plasmodium falciparum [7] = assay: Antimalarial activity against Plasmodium falciparum W2 (MRA-157) incubated for 72 hrs; format: functional, organism-based
# Plasmodium falciparum [8] = assay: Antimalarial activity against chloroquine-resistant Plasmodium falciparum; format: functional, organism-based
# Plasmodium berghei = assay: Antiplasmodial activity against Plasmodium berghei assessed as reduction in parasitemia; format: functional, organism-based
# Plasmodium falciparum [9] = assay: Antimalarial activity against chloroquine sensitive Plasmodium falciparum 3D7; format: functional, organism-based
# Plasmodium falciparum [10] = assay: Antimalarial activity against chloroquine sensitive Plasmodium falciparum K1; format: functional, organism-based
# Plasmodium falciparum [11] = assay: Antimalarial activity against Plasmodium falciparum D6; format: functional, organism-based
# [12] = Plasmodium falciparum, FCA 20/Ghana
# [13] = Plasmodium falciparum, W2/Indochina
compound,measurement,setting,value
C/C=C1\CN2CCc3c([nH]c4ccccc34)[C@@H]2C[C@@H]1Cc1nccc2c1[nH]c1ccccc12,IC50,Plasmodium falciparum [1]; [12],1520 nM
same,IC50,Plasmodium falciparum [2],< 2000 nM
same,IC50,Plasmodium falciparum [3]; [13],594 nM
OCCNc1nccc2c1[nH]c1ccccc12,IC50,Plasmodium falciparum [4],2400 nM
COc1ccc(C2NCCc3c2[nH]c2ccccc32)cc1 (stereo unspecified),IC50,Plasmodium falciparum [5],0.7 µM
Cn1c2c(c3ccccc31)C[C@@H]1C(=O)N([C@@H]3CCN(Cc4ccccc4)C3)CC(=O)N1[C@@H]2c1ccc2c(c1)OCO2,IC50,[6],> 64 µM
c1ccc(C2NCCc3c2[nH]c2ccccc32)cc1 (stereo unspecified),IC50,Plasmodium falciparum [5],8.1 µM
COc1cccc(C2NCCc3c2[nH]c2ccccc32)c1 (stereo unspecified),IC50,Plasmodium falciparum [7],25.1 µM
c1ccc2c(-c3nccc4c3[nH]c3ccccc34)c[nH]c2c1,IC50,Plasmodium falciparum [8],14.4 µM
O=[N+]([O-])c1cccc(C2NCCc3c2[nH]c2ccccc32)c1 (stereo unspecified),IC50,Plasmodium falciparum [7],13.6 µM
COc1ccc2[nH]cc(-c3nccc4c3[nH]c3ccc(OC)cc34)c2c1,IC50,Plasmodium falciparum [8],4.7 µM
COc1ccc(C2NCCc3c2[nH]c2ccccc32)cc1OC (stereo unspecified),IC50,Plasmodium falciparum [7],> 81.1 µM
COC(=O)[C@@H]1Cc2c([nH]c3ccccc23)[C@@H](c2ccc3c(c2)OCO3)N1,IC50,Plasmodium berghei,< 5 µg/mL
COC(=O)[C@@H]1Cc2c([nH]c3ccccc23)[C@H](c2cccs2)N1,IC50,Plasmodium berghei,< 5 µg/mL
CN(C)CCCNc1nccc2c1[nH]c1ccccc12,IC50,Plasmodium falciparum [4],450 nM
CCN(CC)C1CCN(c2nccc3c2[nH]c2ccccc23)CC1,IC50,Plasmodium falciparum [4],410 nM
CCN(CC)CCCNc1nccc2c1[nH]c1ccccc12,IC50,Plasmodium falciparum [4],640 nM
c1ccc2c(c1)[nH]c1c(N3CCOCC3)nccc12,IC50,Plasmodium falciparum [4],4590 nM
c1ccc2c(c1)[nH]c1c(N3CCC(N4CCCCCC4)CC3)nccc12,IC50,Plasmodium falciparum [4],350 nM
c1ccc2c(c1)[nH]c1c(N3CCCCC3)nccc12,IC50,Plasmodium falciparum [4],1200 nM
COC(=O)[C@@H]1Cc2c([nH]c3ccccc23)[C@H](c2cccnc2)N1,IC50,Plasmodium berghei,< 5 µg/mL
c1ccc2c(c1)[nH]c1c(N3CCC(N4CCCC4)CC3)nccc12,IC50,Plasmodium falciparum [4],450 nM
c1ccc2c(c1)[nH]c1c(N3CCC(N4CCCCC4)CC3)nccc12,IC50,Plasmodium falciparum [4],390 nM
CCCCCC[C@H]1N[C@H](C(=O)OC)Cc2c1[nH]c1ccccc21,IC50,Plasmodium berghei,< 5 µg/mL
OC1CCCN(c2nccc3c2[nH]c2ccccc23)C1 (stereo unspecified),IC50,Plasmodium falciparum [4],3400 nM
CCCCCC[C@@H]1N[C@H](C(=O)OC)Cc2c1[nH]c1ccccc21,IC50,Plasmodium berghei,< 5 µg/mL
COC(=O)[C@@H]1Cc2c([nH]c3ccccc23)[C@@H](c2cccs2)N1,IC50,Plasmodium berghei,< 5 µg/mL
CN1CCN(c2nccc3c2[nH]c2ccccc23)CC1,IC50,Plasmodium falciparum [4],620 nM
COC(=O)[C@@H]1Cc2c([nH]c3ccccc23)[C@@H](c2cccnc2)N1,IC50,Plasmodium berghei,< 5 µg/mL
COC(=O)[C@@H]1Cc2c([nH]c3ccccc23)[C@H](c2ccc3c(c2)OCO3)N1,IC50,Plasmodium berghei,< 5 µg/mL
CC1NCCc2c1[nH]c1ccc(Cl)cc21 (stereo unspecified),IC50,Plasmodium falciparum [7],4.2 µM
Clc1ccc(C2NCCc3c2[nH]c2ccccc32)cc1 (stereo unspecified),IC50,Plasmodium falciparum [7],4.8 µM
COC(=O)c1cc2c3c(c1)c1ccccc1n3C=C(C)OC2,IC50,Plasmodium falciparum [9],> 5 µM
Cc1ccc(C)c(C2NCCc3c2[nH]c2ccccc32)c1 (stereo unspecified),IC50,Plasmodium falciparum [5],28.9 µM
C=C(C)CC1OC(C)=Cn2c3ccccc3c3cc(C(=O)OC)cc1c32 (stereo unspecified),IC50,Plasmodium falciparum [9],> 5 µM
CC[C@H]1CN2CCc3c([nH]c4ccccc34)[C@@H]2C[C@@H]1C[C@H]1NCCc2c1[nH]c1ccccc21,IC50,Plasmodium falciparum [1]; [12],118 nM
same,IC50,Plasmodium falciparum [3]; [13],492 nM
C=C[C@H]1CN2CCc3c([nH]c4ccccc34)[C@@H]2C[C@@H]1CC1c2[nH]c3ccccc3c2CCN1C (stereo partly specified),IC50,Plasmodium falciparum [1]; [12],2500 nM
same,IC50,Plasmodium falciparum [2],2000 nM
same,IC50,Plasmodium falciparum [3]; [13],2360 nM
CCN(CC)CCCNc1nccc2c1[nH]c1ccc(Cl)cc12,IC50,Plasmodium falciparum [4],1080 nM
COC(=O)c1cc2c3c(c1)c1ccccc1n3C=C(C)OC2CC=C(C)C (stereo unspecified),IC50,Plasmodium falciparum [9],> 5 µM
same,IC50,Plasmodium falciparum [10],> 5 µM
CC1NCCc2c1[nH]c1ccc(Br)cc21 (stereo unspecified),IC50,Plasmodium falciparum [7],5.7 µM
Cc1ccc(C2NCCc3c2[nH]c2ccccc32)c(C)c1 (stereo unspecified),IC50,Plasmodium falciparum [5],25.3 µM
CCN(CC)CCCNc1nccc2c1[nH]c1ccc(F)cc12,IC50,Plasmodium falciparum [4],360 nM
Oc1ccc2[nH]cc(-c3nccc4c3[nH]c3ccc(O)cc34)c2c1,IC50,Plasmodium falciparum [8],11 µM
C=C(CC1OC(C)=Cn2c3ccccc3c3cc(C(=O)OC)cc1c32)C(=O)OC (stereo unspecified),IC50,Plasmodium falciparum [9],0.57 µM
same,IC50,Plasmodium falciparum [10],0.72 µM
C=C[C@H]1CN2CCc3c([nH]c4ccc(O)cc34)[C@@H]2C[C@@H]1CC1c2[nH]c3ccccc3c2CCN1C (stereo partly specified),IC50,Plasmodium falciparum [1]; [12],480 nM
same,IC50,Plasmodium falciparum [3]; [13],160 nM
[O-][N+]12CCCC/C=C\[C@H]1C[C@]13C[N@@+]4([O-])CCCC/C=C\CC[C@](O)(C=C[C@@H]1CC4)[C@@H]32 (stereo partly specified),IC50,Plasmodium falciparum [11],0.017 µg/mL
COC(=O)c1cc2c3c(c1)c1cc(Cl)ccc1n3C=C(C)OC2,IC50,Plasmodium falciparum [9],> 1.78 µM
same,IC50,Plasmodium falciparum [10],> 2.45 µM
Cc1ccc(C2NCCc3c2[nH]c2ccccc32)cc1 (stereo unspecified),IC50,Plasmodium falciparum [5],7.6 µM
COC(=O)C1Cc2c([nH]c3ccccc23)C(c2c[nH]c3ccccc23)=N1 (stereo unspecified),IC50,Plasmodium falciparum [8],> 29 µM
COC(=O)c1cc2c3c(c1)c1cc(Br)ccc1n3C=C(C)OC2,IC50,Plasmodium falciparum [9],> 5 µM
c1ccc2c(C3NCCc4c3[nH]c3ccccc43)c[nH]c2c1 (stereo unspecified),IC50,Plasmodium falciparum [8],5.1 µM
O=C(O)c1cc2c([nH]c3ccccc32)c(-c2c[nH]c3ccccc23)n1,IC50,Plasmodium falciparum [8],> 3.1 µM
Brc1ccc(C2NCCc3c2[nH]c2ccccc32)cc1 (stereo unspecified),IC50,Plasmodium falciparum [7],6.9 µM
O[C@]12C=C[C@@H]3CCN(CCCC/C=C\CC1)C[C@@]31C[C@@H]3CCCCCCN3[C@H]12,IC50,Plasmodium falciparum [11],0.2 µg/mL
COc1ccc2[nH]cc(C3NCCc4c3[nH]c3ccc(OC)cc43)c2c1 (stereo unspecified),IC50,Plasmodium falciparum [8],8 µM
C/C=C/CC1OC(C)=Cn2c3ccccc3c3cc(C(=O)OC)cc1c32 (stereo unspecified),IC50,Plasmodium falciparum [9],> 5 µM
Clc1ccc2[nH]c3c(N4CCC(N5CCCC5)CC4)nccc3c2c1,IC50,Plasmodium falciparum [4],930 nM
C=C[C@H]1CN2CCc3c([nH]c4c([C@@H]5CCCN5C)c(O)ccc34)[C@@H]2C[C@@H]1CC1c2[nH]c3ccccc3c2CCN1C (stereo partly specified),IC50,Plasmodium falciparum [1]; [12],120 nM
same,IC50,Plasmodium falciparum [2],< 500 nM
same,IC50,Plasmodium falciparum [3]; [13],152 nM
Clc1ccc2[nH]c3c(N4CCC(N5CCCCC5)CC4)nccc3c2c1,IC50,Plasmodium falciparum [4],10200 nM
C=C(C#N)C1OC(C)=Cn2c3ccccc3c3cc(C(=O)OC)cc1c32 (stereo unspecified),IC50,Plasmodium falciparum [9],> 5 µM
CN1CCc2c3n(c4ccccc24)C(O)C[C@H](C2=CCOC2=O)C[C@@H]31 (stereo partly specified),IC50,Plasmodium falciparum [1],25900 nM
same,IC50,Plasmodium falciparum [1]; [12],17000 nM
COC(=O)c1cc2c([nH]c3ccccc32)c(-c2c[nH]c3ccccc23)n1,IC50,Plasmodium falciparum [8],> 29 µM
Cc1cccc(C2NCCc3c2[nH]c2ccccc32)c1 (stereo unspecified),IC50,Plasmodium falciparum [5],38.1 µM
CN(C)c1ccc(C2NCCc3c2[nH]c2ccccc32)cc1 (stereo unspecified),IC50,Plasmodium falciparum [7],3.9 µM
COC(=O)c1cc2c3c(c1)c1ccccc1n3C=C(C)OC2C1C=CCCC1 (stereo unspecified),IC50,Plasmodium falciparum [9],1.64 µM
same,IC50,Plasmodium falciparum [10],> 5 µM
COc1cc(C2NCCc3c2[nH]c2ccccc32)c([N+](=O)[O-])cc1OC (stereo unspecified),IC50,Plasmodium falciparum [7],11.3 µM
CCN(CC)CCC(C)Nc1nccc2c1[nH]c1ccc(Cl)cc12 (stereo unspecified),IC50,Plasmodium falciparum [4],240 nM
COc1ccc(OC)c(C2NCCc3c2[nH]c2ccccc32)c1 (stereo unspecified),IC50,Plasmodium falciparum [7],29.2 µM
COC(=O)c1cc2c3c(c1)c1cc(Cl)ccc1n3C=C(C)OC2C/C=C(\C)CCC=C(C)C (stereo unspecified),IC50,Plasmodium falciparum [9],1.55 µM
same,IC50,Plasmodium falciparum [10],> 5 µM
O=[N+]([O-])c1ccccc1C1NCCc2c1[nH]c1ccccc21 (stereo unspecified),IC50,Plasmodium falciparum [7],47.7 µM
C=CCC1OC(C)=Cn2c3ccc(Cl)cc3c3cc(C(=O)OC)cc1c32 (stereo unspecified),IC50,Plasmodium falciparum [9],> 5 µM
same,IC50,Plasmodium falciparum [10],> 5 µM
O=[N+]([O-])c1ccc(C2NCCc3c2[nH]c2ccccc32)cc1 (stereo unspecified),IC50,Plasmodium falciparum [7],1.7 µM
C=CCC1OC(C)=Cn2c3ccccc3c3cc(C(=O)OC)cc1c32 (stereo unspecified),IC50,Plasmodium falciparum [9],> 5 µM
same,IC50,Plasmodium falciparum [10],> 5 µM
COC(=O)c1cc2c3c(c1)c1ccccc1n3C=C(C)OC2C1=CCCC=C1 (stereo unspecified),IC50,Plasmodium falciparum [9],> 5 µM
same,IC50,Plasmodium falciparum [10],> 5 µM
Cc1ccccc1C1NCCc2c1[nH]c1ccccc21 (stereo unspecified),IC50,Plasmodium falciparum [5],15.2 µM
CCN(CC)CCC(C)Nc1nccc2c1[nH]c1ccc(F)cc12 (stereo unspecified),IC50,Plasmodium falciparum [4],1200 nM
COC(=O)C1Cc2c([nH]c3ccccc23)C(c2c[nH]c3ccccc23)N1 (stereo unspecified),IC50,Plasmodium falciparum [8],13.6 µM
CCN(CC)CCC(C)Nc1nccc2c1[nH]c1ccccc12 (stereo unspecified),IC50,Plasmodium falciparum [4],420 nM
FC(F)(F)c1ccc(C2NCCc3c2[nH]c2ccccc32)cc1 (stereo unspecified),IC50,Plasmodium falciparum [7],12.6 µM
CCN(CC)C1CCN(c2nccc3c2[nH]c2ccc(Cl)cc23)CC1,IC50,Plasmodium falciparum [4],1600 nM
Fc1ccc(C2NCCc3c2[nH]c2ccccc32)cc1 (stereo unspecified),IC50,Plasmodium falciparum [7],1.1 µM
C/C=C1\CN2CCc3c([nH]c4ccccc34)[C@@H]2C[C@@H]1CC1=NCCc2c1[nH]c1ccccc21,IC50,Plasmodium falciparum [1]; [12],857 nM
same,IC50,Plasmodium falciparum [2],< 2000 nM
same,IC50,Plasmodium falciparum [3]; [13],32 nM
N#Cc1ccc(C2NCCc3c2[nH]c2ccccc32)cc1 (stereo unspecified),IC50,Plasmodium falciparum [7],1.1 µM
CC1C2=CN3CCc4c([nH]c5ccc(O)cc45)C3CC2CC2C3C(CCN2C)c2ccccc2N13 (stereo in doubt; 33),IC50,Plasmodium falciparum [1],9550 nM
same,IC50,Plasmodium falciparum [3],12700 nM
CC1C2=CN3CCc4c([nH]c5ccc(O)cc45)C3CC2CC2C3C(CCN2C)c2ccccc2N13 (stereo in doubt; 34),IC50,Plasmodium falciparum [1]; [12],12600 nM
same,IC50,Plasmodium falciparum [2],2000 nM
same,IC50,Plasmodium falciparum [3],4570 nM
CC1NCCc2c1[nH]c1ccccc21 (stereo unspecified) [TETRAHYDROHARMAN],IC50,Plasmodium falciparum [5],1.4 µM
